# Patent US20250000868A1, “USE OF ADENOSINE A2B RECEPTOR AS TARGET IN DRUGS FOR PREVENTION AND/OR TREATMENT OF PRURITUS” (The Fourth Affiliated Hospital, ZJU, priority 2023, published 2025)
# “Also recorded” adds a separate entry of the source.
# Assays:
# [1] = target: T1, adenosine A2B receptor (Mus musculus, UniProt Q60614); test: Histamine-induced scratching behavioral experiment; format: in vivo; conditions: for number of histamine-induced scratches: within 30 min before histamine 250 μg/50 μL s.c. neck, scratches recorded within 30 min
# T1 construct: from tissue; host or cells: living mouse; intrathecal dosing, receptor expressed in dorsal root ganglion neurons
# T1 sequence (Q60614 1-332): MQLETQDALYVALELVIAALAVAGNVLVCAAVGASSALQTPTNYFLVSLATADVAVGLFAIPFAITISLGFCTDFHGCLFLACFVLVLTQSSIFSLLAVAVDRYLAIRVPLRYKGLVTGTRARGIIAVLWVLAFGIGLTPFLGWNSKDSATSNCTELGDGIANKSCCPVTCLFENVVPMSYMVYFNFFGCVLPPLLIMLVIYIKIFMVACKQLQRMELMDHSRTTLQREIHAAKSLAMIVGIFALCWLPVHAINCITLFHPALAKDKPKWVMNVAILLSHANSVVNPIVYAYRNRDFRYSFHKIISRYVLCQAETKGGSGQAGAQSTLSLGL
# Description: (§1) Refer to the prior art (Jang et al., 2015) for scratching behavior. The specific operation method was as follows: each mouse neck hair was shaved two days before the experiment, and the mouse was housed in a transparent organic plastic chamber to receive acclimatization training for two consecutive days, at least 1 h a day. Adjacent transparent plastic chambers were separated by a piece of white paper to eliminate mutual interference between mice. On the day of the experiment, histamine (250 μg/50 μL) was subcutaneously injected into the mouse neck and the mice were immediately placed in the transparent plastic chamber to record scratching behaviors within 30 min using a camera. One effective scratch was defined as follows: a mouse lifted its hind leg to scratch the skin at the […] injection site and put the hind leg down, and despite the number of scratches in the interval between lifting the hind leg and putting it down, an effective scratching behavior was considered. To evaluate the antipruritic effect of PSB-603, the mice received an intrathecal injection of PSB-603 (the administration dose was 10 μL, and the dosing concentration was 1 or 10 μM) within 30 min before histamine injection.
# (§2) Using a pharmacological method, the adenosine A2B receptor activity is blocked by intrathecal injection of selective adenosine A2B receptor antagonist PSB-603. […] Moreover, alleviating the effect of PSB-603 on scratch is related to the dose. […] Therefore, inhibition of the adenosine A2B receptor is an effective way to treat pruritus.
# [2] = target: T1, adenosine A2B receptor; test: Chloroquine-induced scratching behavioral experiment; format: in vivo; conditions: for number of chloroquine-induced scratches: within 30 min before chloroquine 200 μg/50 μL s.c. neck, scratches recorded within 30 min
# Description: as §1, with “the experiment, chloroquine (200 μg/50 μL)” for “the experiment, histamine (250 μg/50 μL)”, “concentration was 1, 10 or 20” for “concentration was 1 or 10”, “10 or 20 μM) within” for “1 or 10 μM) within”, “min before chloroquine injection.” for “min before histamine injection.”
# as §2
# [3] = PSB-603 intrathecal 10 μL at 10 μM
compound,measurement,setting,value
CCCn1c(=O)[nH]c2nc(-c3ccc(S(=O)(=O)N4CCN(c5ccc(Cl)cc5)CC4)cc3)[nH]c2c1=O [PSB-603],number of histamine-induced scratches,[1]; [3],reduces the number of histamine-induced scratches
same,number of histamine-induced scratches,[1]; PSB-603 intrathecal 10 μL at dose of 1 μM,the number of animal scratches cannot be reduced
same,"histamine-induced scratching behaviors, overall effect","[1]; intrathecal injection of PSB-603 in advance, 1 or 10 μM, FIG. 3C",dose-dependent inhibition; also recorded: can effectively prevent histamine-induced scratching behaviors
same,number of chloroquine-induced scratches,[2]; [3],reduces the number of chloroquine-induced scratches
same,number of chloroquine-induced scratches,[2]; PSB-603 intrathecal 10 μL at 20 μM,reduces the number of chloroquine-induced scratches
same,"chloroquine-induced scratching behaviors, overall effect","[2]; intrathecal injection of PSB-603 in advance, 1, 10 or 20 μM, FIG. 4",dose-dependent inhibition; also recorded: can effectively prevent chloroquine-induced scratching behaviors
